Assay results: EPA's ToxValDB 9.5 (doi:10.2903/j.efsa.2009.201r)

Experiments:
Anas platyrhynchos = details: oral, mortality
Apis mellifera = details: acute; duration: 48 hours; dermal; mortality
Canidae = details: chronic; duration: 1 years; oral; Dog Other; body weight
Daphnia magna = details: chronic/long-term; duration: 21 days; growth
Rattus norvegicus = details: for NOAEL: chronic
Tagia sp. = details: mortality

COc1nc(C)nc(NC(=O)NS(=O)(=O)c2ccccc2Cl)n1 [Chlorsulfuron]
LD50 (Anas platyrhynchos; acute, unspecified): > 5000 mg/kg-day
LC50 (Anas platyrhynchos; short-term, feed): > 634 mg/kg-day
LD50 (Apis mellifera): > 100 µg/piece
NOAEL (Canidae): 60.6 mg/kg-day
LD50 (Colinus virginianus; acute, oral, mortality): > 5000 mg/kg-day
NOEL (Colinus virginianus; reproduction developmental): 28 mg/kg-day
NOEC (Daphnia magna): 12 mg/L
LC50 (Oncorhynchus mykiss; acute, duration: 96 hours, mortality): > 122 µg/mL
NOEC (Oncorhynchus mykiss; chronic/long-term, duration: 77 days, growth): 32 mg/L
LD50 (Rattus norvegicus; acute, oral, mortality): > 5540 mg/kg-day
NOAEL (Rattus norvegicus): 75 mg/kg-day
NOAEL (Rattus norvegicus; duration: 2 years, histopathology: neoplastic): 20 mg/kg-day
LC50 (Tagia sp.; acute, duration: 14 days): > 750 mg/kg
NOEC (Tagia sp.; chronic/long-term, duration: 56 days): 188 mg/kg
